{"source": "ChEMBL document CHEMBL6109084", "about": "(Eur J Med Chem, 2025)", "key": {"[1]": {"target": "Coagulation factor XI (Homo sapiens, UniProt P03951)", "sequence (P03951 19-387 limits assumed)": "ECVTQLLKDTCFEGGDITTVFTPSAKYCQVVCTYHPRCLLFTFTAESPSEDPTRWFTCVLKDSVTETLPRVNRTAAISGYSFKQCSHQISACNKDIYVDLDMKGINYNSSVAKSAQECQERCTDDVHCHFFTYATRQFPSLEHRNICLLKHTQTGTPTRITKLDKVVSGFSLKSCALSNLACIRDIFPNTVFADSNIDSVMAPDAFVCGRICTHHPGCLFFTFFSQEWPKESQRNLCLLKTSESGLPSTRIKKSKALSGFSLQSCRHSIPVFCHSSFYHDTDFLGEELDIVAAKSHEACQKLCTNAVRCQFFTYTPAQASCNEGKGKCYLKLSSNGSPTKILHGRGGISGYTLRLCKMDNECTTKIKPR", "sequence (P03951 388-625 limits assumed)": "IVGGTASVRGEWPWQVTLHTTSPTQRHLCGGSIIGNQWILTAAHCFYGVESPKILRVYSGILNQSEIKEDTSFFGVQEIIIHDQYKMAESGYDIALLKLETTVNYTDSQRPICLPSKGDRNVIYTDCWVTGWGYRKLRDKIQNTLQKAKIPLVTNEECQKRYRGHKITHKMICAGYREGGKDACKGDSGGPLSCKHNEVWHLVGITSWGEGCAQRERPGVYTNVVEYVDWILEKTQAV", "test": "Inhibition of human FXIa using p-Glu-Pro-Arg-pNA.HCl as substrate incubated for 30 mins followed by substrate addition and measured after 60 mins by microplate reader analysis"}, "[2]": {"tested_on": "Plasma", "test": "Anticoagulant activity in citrated human plasma assessed as prolongation of activated partial thromboplastin time at 1 uM incubated for 3 mins by aPTT reagent based automated coagulometric analysis relative to control", "assay_type": "functional", "conditions": "0.05 h"}}}
{"compound": "COc1cn(Cc2ccc(-c3ccc(O)cc3)cc2)c(=O)cc1-c1cc(Cl)ccc1-n1cnnn1", "values": [{"measurement": "IC50", "setting": "[1]", "value": 203, "unit": "nM"}]}
{"compound": "COc1cn(C(C)c2ccc(F)c(-c3ccc(N)nc3)c2)c(=O)cc1-c1cc(Cl)ccc1-n1cnnn1", "note": "(centres undefined)", "values": [{"measurement": "IC50", "setting": "[1]", "value": 1.4, "unit": "nM"}, {"measurement": "Activity", "setting": "[2]", "value": 14.8, "unit": "%"}]}
{"compound": "COc1cn(Cc2cccc(-c3ccncc3)c2)c(=O)cc1-c1cc(Cl)ccc1-n1cc(Cl)nn1", "values": [{"measurement": "IC50", "setting": "[1]", "value": 4.2, "unit": "nM"}, {"measurement": "Activity", "setting": "[2]", "value": 78.1, "unit": "%"}]}
{"compound": "COc1cn(Cc2cccc(-c3ccc(NC(C)=O)cc3)c2)c(=O)cc1-c1cc(Cl)ccc1-n1cnnn1", "values": [{"measurement": "IC50", "setting": "[1]", "value": 6.4, "unit": "nM"}, {"measurement": "Activity", "setting": "[2]", "value": 50.8, "unit": "%"}]}
{"compound": "COc1ccc(Cn2cc(OC)c(-c3cc(Cl)ccc3-n3cnnn3)cc2=O)cc1-c1ccc(N)nc1", "values": [{"measurement": "IC50", "setting": "[1]", "value": 1.7, "unit": "nM"}, {"measurement": "Activity", "setting": "[2]", "value": 50.4, "unit": "%"}]}
{"compound": "COc1cn(Cc2ccc(F)c(-c3ccc(O)cc3)c2)c(=O)cc1-c1cc(Cl)ccc1-n1cnnn1", "values": [{"measurement": "IC50", "setting": "[1]", "value": 1.4, "unit": "nM"}, {"measurement": "Activity", "setting": "[2]", "value": 63.2, "unit": "%"}]}
{"compound": "COc1cn(Cc2cccc(-c3cnc(N)nc3)c2)c(=O)cc1-c1cc(Cl)ccc1-n1cnnn1", "values": [{"measurement": "IC50", "setting": "[1]", "value": 11.5, "unit": "nM"}]}
{"compound": "COc1cn(Cc2cccc(-c3ccncc3)c2)c(=O)cc1-c1cc(Cl)ccc1OC(F)F", "values": [{"measurement": "IC50", "setting": "[1]", "value": "> 500", "unit": "nM"}]}
{"compound": "COc1cn(Cc2cccc(-c3ccc(N)nc3)c2)c(=O)cc1-c1cc(Cl)ccc1-n1cnnn1", "values": [{"measurement": "IC50", "setting": "[1]", "value": 0.35, "unit": "nM"}, {"measurement": "Activity", "setting": "[2]", "value": 143.3, "unit": "%"}]}
{"compound": "CNC(=O)c1ccc(-c2cccc(Cn3cc(OC)c(-c4cc(Cl)ccc4-n4cnnn4)cc3=O)c2)cc1", "values": [{"measurement": "IC50", "setting": "[1]", "value": 5.9, "unit": "nM"}, {"measurement": "Activity", "setting": "[2]", "value": 45.4, "unit": "%"}]}
{"compound": "COc1cn(Cc2ccc(F)c(-c3ccc4[nH]ncc4c3)c2)c(=O)cc1-c1cc(Cl)ccc1-n1cnnn1", "values": [{"measurement": "IC50", "setting": "[1]", "value": 1.3, "unit": "nM"}, {"measurement": "Activity", "setting": "[2]", "value": 57.1, "unit": "%"}]}
{"compound": "COc1cn(Cc2cccc(-c3ccc(O)cc3)c2)c(=O)cc1-c1cc(Cl)ccc1-n1cnnn1", "values": [{"measurement": "IC50", "setting": "[1]", "value": 1.7, "unit": "nM"}, {"measurement": "Activity", "setting": "[2]", "value": 26.6, "unit": "%"}]}
{"compound": "COc1cn(C(C)c2cccc(-c3ccncc3)c2)c(=O)cc1-c1cc(Cl)ccc1-n1cnnn1", "note": "(centres undefined)", "values": [{"measurement": "IC50", "setting": "[1]", "value": 2.4, "unit": "nM"}, {"measurement": "Activity", "setting": "[2]", "value": 80.1, "unit": "%"}]}
{"compound": "CCC(c1cc(-c2ccc(N)nc2F)ccn1)n1cc(OC)c(-c2cc(Cl)ccc2-n2cnnn2)cc1=O", "note": "(racemic)", "values": [{"measurement": "IC50", "setting": "[1]", "value": 0.39, "unit": "nM"}, {"measurement": "Activity", "setting": "[2]", "value": 97.2, "unit": "%"}]}
{"compound": "COc1cn(Cc2cccc(-c3ccc(F)cc3)c2)c(=O)cc1-c1cc(Cl)ccc1-n1cnnn1", "values": [{"measurement": "IC50", "setting": "[1]", "value": 10.1, "unit": "nM"}]}
{"compound": "COc1c[nH]c(=O)cc1-c1cc(Cl)ccc1-n1cnnn1", "values": [{"measurement": "IC50", "setting": "[1]", "value": 1100, "unit": "nM"}]}
{"compound": "COc1cn(Cc2cccc(-c3ccc(N)nc3F)c2)c(=O)cc1-c1cc(Cl)ccc1-n1cnnn1", "values": [{"measurement": "IC50", "setting": "[1]", "value": 0.39, "unit": "nM"}, {"measurement": "Activity", "setting": "[2]", "value": 103.4, "unit": "%"}]}
{"compound": "COc1cn(Cc2ccc(F)c(-c3ccc(NC(C)=O)cc3)c2)c(=O)cc1-c1cc(Cl)ccc1-n1cnnn1", "values": [{"measurement": "IC50", "setting": "[1]", "value": 1.9, "unit": "nM"}, {"measurement": "Activity", "setting": "[2]", "value": 86.8, "unit": "%"}]}
{"compound": "COc1cn(Cc2cccc(-c3ccc(N)nc3)c2)c(=O)cc1-c1cc(Cl)ccc1C(F)F", "values": [{"measurement": "IC50", "setting": "[1]", "value": "> 1000", "unit": "nM"}]}
{"compound": "COc1cn(Cc2ccnc(-c3ccc(N)nc3)c2)c(=O)cc1-c1cc(Cl)ccc1-n1cnnn1", "values": [{"measurement": "IC50", "setting": "[1]", "value": 0.33, "unit": "nM"}, {"measurement": "Activity", "setting": "[2]", "value": 112.5, "unit": "%"}]}
{"compound": "COc1cn(Cc2ccc(F)c(-c3ccncc3)c2)c(=O)cc1-c1cc(Cl)ccc1-n1cc(Cl)nn1", "values": [{"measurement": "IC50", "setting": "[1]", "value": 4.9, "unit": "nM"}, {"measurement": "Activity", "setting": "[2]", "value": 74.7, "unit": "%"}]}
{"compound": "COc1cn(Cc2cccc(-c3ccc(N)nc3)c2)c(=O)cc1-c1cc(Cl)ccc1OC(F)F", "values": [{"measurement": "IC50", "setting": "[1]", "value": "> 500", "unit": "nM"}]}
{"compound": "COc1cn(Cc2cccc(-c3ccncc3)c2)c(=O)cc1-c1cc(Cl)ccc1C(F)F", "values": [{"measurement": "IC50", "setting": "[1]", "value": "> 1000", "unit": "nM"}]}
{"compound": "COc1cn(Cc2cc(-c3cnc(N)nc3)ccn2)c(=O)cc1-c1cc(Cl)ccc1-n1cnnn1", "values": [{"measurement": "IC50", "setting": "[1]", "value": 95.3, "unit": "nM"}]}
{"compound": "CCC(c1cccc(-c2ccc(N)nc2)c1)n1cc(OC)c(-c2cc(Cl)ccc2-n2cc(Cl)nn2)cc1=O", "note": "(centres undefined)", "values": [{"measurement": "IC50", "setting": "[1]", "value": 1.6, "unit": "nM"}, {"measurement": "Activity", "setting": "[2]", "value": 55.6, "unit": "%"}]}
{"compound": "COc1ccc(-c2cccc(Cn3cc(OC)c(-c4cc(Cl)ccc4-n4cnnn4)cc3=O)c2)cc1", "values": [{"measurement": "IC50", "setting": "[1]", "value": 129, "unit": "nM"}]}
{"compound": "COc1cn(Cc2cccc(-c3ccc(N(C)C)cc3)c2)c(=O)cc1-c1cc(Cl)ccc1-n1cnnn1", "values": [{"measurement": "IC50", "setting": "[1]", "value": "> 500", "unit": "nM"}]}
{"compound": "COc1cn(C(C)c2cccc(-c3ccc(N)nc3)c2)c(=O)cc1-c1cc(Cl)ccc1-n1cnnn1", "note": "(centres undefined)", "values": [{"measurement": "IC50", "setting": "[1]", "value": 0.54, "unit": "nM"}, {"measurement": "Activity", "setting": "[2]", "value": 74.3, "unit": "%"}]}
{"compound": "COc1cn(Cc2ccc(F)c(-c3ccc(N)nc3)c2)c(=O)cc1-c1cc(Cl)ccc1-n1cnnn1", "values": [{"measurement": "IC50", "setting": "[1]", "value": 0.69, "unit": "nM"}, {"measurement": "Activity", "setting": "[2]", "value": 128.5, "unit": "%"}]}
{"compound": "COc1cn(Cc2ccnc(-c3ccncc3)c2)c(=O)cc1-c1cc(Cl)ccc1-n1cnnn1", "values": [{"measurement": "IC50", "setting": "[1]", "value": 2.3, "unit": "nM"}, {"measurement": "Activity", "setting": "[2]", "value": 113.1, "unit": "%"}]}
{"compound": "COc1cn(Cc2ccc(F)c(-c3ccc(N)nc3)c2)c(=O)cc1-c1cc(Cl)ccc1-n1cc(Cl)nn1", "values": [{"measurement": "IC50", "setting": "[1]", "value": 3.2, "unit": "nM"}, {"measurement": "Activity", "setting": "[2]", "value": 55.4, "unit": "%"}]}
{"compound": "CC[C@H](c1cc(-c2ccc(N)nc2F)ccn1)n1cc(OC)c(-c2cc(Cl)ccc2-n2cnnn2)cc1=O", "values": [{"measurement": "IC50", "setting": "[1]", "value": 6.7, "unit": "nM"}, {"measurement": "Activity", "setting": "[2]", "value": 56.3, "unit": "%"}]}
{"compound": "CNC(=O)c1ccc(-c2cc(Cn3cc(OC)c(-c4cc(Cl)ccc4-n4cnnn4)cc3=O)ccc2F)cc1", "values": [{"measurement": "IC50", "setting": "[1]", "value": 5.2, "unit": "nM"}, {"measurement": "Activity", "setting": "[2]", "value": 49.9, "unit": "%"}]}
{"compound": "COc1cn(Cc2cccc(-c3ccc(F)cc3F)c2)c(=O)cc1-c1cc(Cl)ccc1-n1cnnn1", "values": [{"measurement": "IC50", "setting": "[1]", "value": 15.1, "unit": "nM"}]}
{"compound": "COc1cn(Cc2ccc3ccccc3c2)c(=O)cc1-c1cc(Cl)ccc1-n1cnnn1", "values": [{"measurement": "IC50", "setting": "[1]", "value": 39, "unit": "nM"}]}
{"compound": "COc1cn(Cc2cccc(-c3ccc(N)nc3)c2)c(=O)cc1-c1cc(Cl)ccc1-n1cc(Cl)nn1", "values": [{"measurement": "IC50", "setting": "[1]", "value": 2.2, "unit": "nM"}, {"measurement": "Activity", "setting": "[2]", "value": 82.8, "unit": "%"}]}
{"compound": "COc1ccc(Cn2cc(OC)c(-c3cc(Cl)ccc3-n3cnnn3)cc2=O)cc1-c1ccncc1", "values": [{"measurement": "IC50", "setting": "[1]", "value": 2.1, "unit": "nM"}, {"measurement": "Activity", "setting": "[2]", "value": 70, "unit": "%"}]}
{"compound": "COc1cn(Cc2ccc(F)c(-c3ccncc3)c2)c(=O)cc1-c1cc(Cl)ccc1-n1cnnn1", "values": [{"measurement": "IC50", "setting": "[1]", "value": 1.8, "unit": "nM"}, {"measurement": "Activity", "setting": "[2]", "value": 129.8, "unit": "%"}]}
{"compound": "COc1cn(Cc2cccc(-c3ccc4[nH]ncc4c3)c2)c(=O)cc1-c1cc(Cl)ccc1-n1cnnn1", "values": [{"measurement": "IC50", "setting": "[1]", "value": 4, "unit": "nM"}, {"measurement": "Activity", "setting": "[2]", "value": 38.7, "unit": "%"}]}
{"compound": "COc1cn(Cc2cccc(-c3ccc(C(N)=O)cc3F)c2)c(=O)cc1-c1cc(Cl)ccc1-n1cnnn1", "values": [{"measurement": "IC50", "setting": "[1]", "value": 3, "unit": "nM"}, {"measurement": "Activity", "setting": "[2]", "value": 82.8, "unit": "%"}]}
{"compound": "COc1cn(Cc2ccc(F)c(-c3ccc(C(N)=O)cc3F)c2)c(=O)cc1-c1cc(Cl)ccc1-n1cnnn1", "values": [{"measurement": "IC50", "setting": "[1]", "value": 4.7, "unit": "nM"}, {"measurement": "Activity", "setting": "[2]", "value": 47, "unit": "%"}]}
